Experimental data as given in patent publication US20250296917A1, “SPIRO-CYCLIC AMINE DERIVATIVES AS S1P MODULATORS” (AbbVie Deutschland GmbH & Co. KG, priority 2020, published 2025).

Tests used:
Format in all cases: cell-based
human S1PR3 = target: T1, human S1PR3 (Homo sapiens, UniProt Q99500); assay: Intracellular Ca2+ release agonist assay (Calcium 5 FLIPR), CHO-K1 cells expressing human S1PR3; conditions: agonism, recombinant CHO-K1 cells with aequorin and Gq/i5; read-out: hS1PR3 pEC50 (converted)
T1 construct: host or cells: CHO-K1
T1 sequence (Q99500 whole entry): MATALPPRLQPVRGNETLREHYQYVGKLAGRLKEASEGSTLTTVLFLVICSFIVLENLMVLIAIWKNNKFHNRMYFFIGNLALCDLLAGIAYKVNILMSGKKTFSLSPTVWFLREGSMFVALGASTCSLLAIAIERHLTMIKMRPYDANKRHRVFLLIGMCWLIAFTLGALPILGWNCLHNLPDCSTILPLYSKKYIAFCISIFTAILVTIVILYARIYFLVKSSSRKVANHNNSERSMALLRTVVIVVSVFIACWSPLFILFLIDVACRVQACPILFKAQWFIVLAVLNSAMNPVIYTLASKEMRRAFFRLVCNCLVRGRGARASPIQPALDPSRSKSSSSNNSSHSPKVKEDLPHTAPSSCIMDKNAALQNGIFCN
Procedure: (§1) Agonist potency and efficacy were assessed by measurement of intracellular […] release. Recombinant CHO-K1 cells (Euroscreen, Brussels, Belgium) expressing human S1PR5, S1PR1, S1PR3 or S1PR4 receptors, aequorin, and GTP binding protein Gq/i5 were cultured using a medium containing nutrient mixture F-12 Ham (Sigma-Aldrich) supplemented with 10% FBS, 100 µg/mL gentamicin and equilibrated at 5% C02. 15.000 cells in […] medium were seeded into Biocoat poly-D-Lysine coated 384 well plates (Becton Dickinson #35-6663) and grown to ˜95% confluency after 24 h. Culture medium was replaced by an assay buffer consisting of HBBS with Ca2+ and Mg2+ (Invitrogen #14025-050), 20 mmol/L Hepes (Sigma-Aldrich #H-3375), 2.5 mmol/L probenecid (Sigma-Aldrich #P-8761, and 0.1% BSA (Sigma-Aldrich #A-7030) pH 7.4. The Calcium 5 no-wash FLIPR assay kit (Molecular Devices #5000625) was performed as described in the kit instructions. Cells were incubated with Calcium 5 dye for 1 h at 37° C., 5% CO2 in the dark. After 45 min adaptation to RT assessment of agonist stimulation of intracellular Ca2+ release was performed by addition of test compounds at various concentrations obtained by serial dilution. Phospho-fingolimod was used as positive control and reference agonist (intrinsic activity 100%).

[1] = target: hS1PR2 (recombinant human S1P2 receptor) (Homo sapiens, UniProt O95136); assay: hS1PR2 agonist aequorin luminescence assay (Euroscreen/Eurofins); conditions: agonism, cells co-expressing apoaequorin, human Gα16 and S1P2 receptor; read-out: hS1PR2 pEC50 (converted)
Sequence of hS1PR2 (recombinant human S1P2 receptor) (O95136 whole entry): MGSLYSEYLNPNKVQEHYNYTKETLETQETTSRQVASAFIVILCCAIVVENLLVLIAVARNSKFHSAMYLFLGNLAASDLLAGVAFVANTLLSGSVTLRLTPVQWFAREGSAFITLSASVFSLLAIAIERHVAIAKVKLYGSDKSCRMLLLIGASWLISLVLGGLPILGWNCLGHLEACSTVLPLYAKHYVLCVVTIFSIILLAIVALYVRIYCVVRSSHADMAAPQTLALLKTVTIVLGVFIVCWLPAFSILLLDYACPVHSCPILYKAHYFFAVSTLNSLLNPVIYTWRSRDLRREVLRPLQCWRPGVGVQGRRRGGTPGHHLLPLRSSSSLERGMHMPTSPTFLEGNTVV
Procedure: Efficacy testing for hS1PR2 was performed at Euroscreen, Eurofins, France. Cells co-expressing mitochondrial Apoaequorin, recombinant human Gα16 and S1P2 receptor (FAST-0198A) grown to mid-log phase in culture media without antibiotics were detached with PBS-EDTA, centrifuged and resuspended in assay buffer (DMEM/HAM's F12 with HEPES, without phenol red+0.1 fatty acid free BSA) at a concentration of 1×10^6 cells/ml. Cells were incubated at room temperature for at least 4 h with coelenterazine. The reference agonists S1P and […] were tested to evaluate the performance of the assay on each day of the test and determine the EC50. For agonist testing, cell suspension was mixed 1:1 with test or reference agonist in 384-well plate. The resulting emission of light was recorded using a Hamamatsu Functional Drug Screening System 6000 (FDSS) luminometer. On each day of experimentation, reference compounds were tested at several concentrations to obtain a dose-response curve and an estimated EC50 value. Reference values thus obtained for the test were compared to historical values obtained from the same receptor and used to validate the experimental session.

human S1PR1 = target: T2, human S1PR1 (Homo sapiens, UniProt P21453); assay: Intracellular Ca2+ release agonist assay (Calcium 5 FLIPR), CHO-K1 cells expressing human S1PR1; conditions: agonism, recombinant CHO-K1 cells with aequorin and Gq/i5; read-out: hS1PR1 pEC50 (converted)
T2 construct: host or cells: CHO-K1
T2 sequence (P21453 whole entry): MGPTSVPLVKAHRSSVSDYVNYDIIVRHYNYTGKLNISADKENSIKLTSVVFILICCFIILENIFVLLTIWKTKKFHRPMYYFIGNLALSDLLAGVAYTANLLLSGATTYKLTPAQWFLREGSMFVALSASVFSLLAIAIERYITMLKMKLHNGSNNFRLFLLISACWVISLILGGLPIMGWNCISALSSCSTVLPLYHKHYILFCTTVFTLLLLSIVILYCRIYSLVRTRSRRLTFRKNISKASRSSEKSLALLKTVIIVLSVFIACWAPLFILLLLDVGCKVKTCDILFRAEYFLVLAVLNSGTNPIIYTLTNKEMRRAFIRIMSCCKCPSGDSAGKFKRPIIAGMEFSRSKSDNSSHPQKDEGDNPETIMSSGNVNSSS
Procedure: as §1

EC50 (human S1PR3): < 5.01 µM
EC50 [1]: < 5.01 µM
EC50 (human S1PR1): < 5.01 µM
SMILES: CCc1cccc(Cl)c1COc1ccc2c(c1)CC[C@@]21CN(CCC(=O)O)CCO1 [Compound 1a, (S)-3-(5-((2-chloro-6-ethylbenzyl)oxy)-2,3-dihydrospiro[indene-1,2′-morpholin]-4′-yl)propanoic acid]
